This note sets out measurements from PMC6078345, “Location and functions of Inebriated in the Drosophila eye” (Biology Open, 2018).

This test addresses T1, Ine-P1 (Inebriated long isoform; Ine-P1::GFP, Ine-P1-EGFP) (Drosophila melanogaster, UniProt Q9VR07).
T1 construct: full-length long isoform, GFP/EGFP fusion, cRNA in Xenopus laevis oocytes; 943 aa
T1 sequence (Q9VR07 1-943): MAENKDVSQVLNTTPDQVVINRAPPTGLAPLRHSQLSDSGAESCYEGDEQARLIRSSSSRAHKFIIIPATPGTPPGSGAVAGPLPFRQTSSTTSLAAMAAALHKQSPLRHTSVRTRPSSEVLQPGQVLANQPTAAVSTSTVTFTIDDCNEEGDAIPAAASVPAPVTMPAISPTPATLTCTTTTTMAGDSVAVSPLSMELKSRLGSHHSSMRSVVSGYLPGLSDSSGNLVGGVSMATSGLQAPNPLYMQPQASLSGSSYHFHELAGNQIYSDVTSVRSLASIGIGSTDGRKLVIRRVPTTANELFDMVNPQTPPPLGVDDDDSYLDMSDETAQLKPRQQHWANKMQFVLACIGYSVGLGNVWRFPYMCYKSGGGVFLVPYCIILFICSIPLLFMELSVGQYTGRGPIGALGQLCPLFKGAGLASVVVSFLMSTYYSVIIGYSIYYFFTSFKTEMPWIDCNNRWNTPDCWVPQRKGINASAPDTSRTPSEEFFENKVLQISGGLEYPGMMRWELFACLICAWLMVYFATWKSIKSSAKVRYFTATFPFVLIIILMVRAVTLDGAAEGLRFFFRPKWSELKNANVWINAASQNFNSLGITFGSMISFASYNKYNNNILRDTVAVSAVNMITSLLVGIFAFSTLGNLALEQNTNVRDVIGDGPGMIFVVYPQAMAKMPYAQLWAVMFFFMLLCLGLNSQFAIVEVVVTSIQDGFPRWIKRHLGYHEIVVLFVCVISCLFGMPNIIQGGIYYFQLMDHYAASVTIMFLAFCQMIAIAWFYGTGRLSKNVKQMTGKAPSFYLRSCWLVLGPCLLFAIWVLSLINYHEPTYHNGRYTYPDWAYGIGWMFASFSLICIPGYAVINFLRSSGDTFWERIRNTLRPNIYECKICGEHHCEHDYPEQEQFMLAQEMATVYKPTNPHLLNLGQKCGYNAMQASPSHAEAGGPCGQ
The test can be described thus: voltage-clamp current in Xenopus oocytes. In kind it is cell-based. As to conditions: normal frog Ringer, -100 mV; dose-dependent current, 7 to 100 mM; few oocytes; transport only suggested.

With `NCC(=O)O` [glycine], the “voltage-clamp current in Xenopus oocytes” value is “glycine on Ine-P1-EGFP transfected oocytes revealed an obvious dose-dependent signal”.
